In the kinase profiling compilation of Christmann-Franck et al. (2016):
Values joined by “and” are separate entries in the source; they are usually repeats but may differ in a detail not shown here. Equal entries are not always repeated.

What was measured:
Assay in all cases: radiometric filter-binding kinase assay, Kinase HotSpot
Details in all cases: compound 0.5 µM; ATP 10 µM
MAPK13 (human) = MAPK13 (human) (UniProt O15264)
PBK (human) = PBK (human) (UniProt Q96KB5)
AXL (human) = AXL (human) (UniProt P30530)
DYRK4 (human) = DYRK4 (human) (UniProt Q9NR20)
MAP2K2 (human) = MAP2K2 (human) (UniProt P36507)
PAK7 (human) = PAK7 (human) (UniProt Q9P286)
CSF1R (human) = CSF1R (human) (UniProt P07333)
PIM3 (human) = PIM3 (human) (UniProt Q86V86)
ADRBK2 (human) = ADRBK2 (human) (UniProt P35626)
CDK1 CCNB1 (human) = CDK1 CCNB1 (human) (UniProt P06493+P14635)
LRRK2 (human) = LRRK2 (human) (UniProt Q5S007)
Chain of LRRK2 (human) (Q5S007 whole entry, looked up): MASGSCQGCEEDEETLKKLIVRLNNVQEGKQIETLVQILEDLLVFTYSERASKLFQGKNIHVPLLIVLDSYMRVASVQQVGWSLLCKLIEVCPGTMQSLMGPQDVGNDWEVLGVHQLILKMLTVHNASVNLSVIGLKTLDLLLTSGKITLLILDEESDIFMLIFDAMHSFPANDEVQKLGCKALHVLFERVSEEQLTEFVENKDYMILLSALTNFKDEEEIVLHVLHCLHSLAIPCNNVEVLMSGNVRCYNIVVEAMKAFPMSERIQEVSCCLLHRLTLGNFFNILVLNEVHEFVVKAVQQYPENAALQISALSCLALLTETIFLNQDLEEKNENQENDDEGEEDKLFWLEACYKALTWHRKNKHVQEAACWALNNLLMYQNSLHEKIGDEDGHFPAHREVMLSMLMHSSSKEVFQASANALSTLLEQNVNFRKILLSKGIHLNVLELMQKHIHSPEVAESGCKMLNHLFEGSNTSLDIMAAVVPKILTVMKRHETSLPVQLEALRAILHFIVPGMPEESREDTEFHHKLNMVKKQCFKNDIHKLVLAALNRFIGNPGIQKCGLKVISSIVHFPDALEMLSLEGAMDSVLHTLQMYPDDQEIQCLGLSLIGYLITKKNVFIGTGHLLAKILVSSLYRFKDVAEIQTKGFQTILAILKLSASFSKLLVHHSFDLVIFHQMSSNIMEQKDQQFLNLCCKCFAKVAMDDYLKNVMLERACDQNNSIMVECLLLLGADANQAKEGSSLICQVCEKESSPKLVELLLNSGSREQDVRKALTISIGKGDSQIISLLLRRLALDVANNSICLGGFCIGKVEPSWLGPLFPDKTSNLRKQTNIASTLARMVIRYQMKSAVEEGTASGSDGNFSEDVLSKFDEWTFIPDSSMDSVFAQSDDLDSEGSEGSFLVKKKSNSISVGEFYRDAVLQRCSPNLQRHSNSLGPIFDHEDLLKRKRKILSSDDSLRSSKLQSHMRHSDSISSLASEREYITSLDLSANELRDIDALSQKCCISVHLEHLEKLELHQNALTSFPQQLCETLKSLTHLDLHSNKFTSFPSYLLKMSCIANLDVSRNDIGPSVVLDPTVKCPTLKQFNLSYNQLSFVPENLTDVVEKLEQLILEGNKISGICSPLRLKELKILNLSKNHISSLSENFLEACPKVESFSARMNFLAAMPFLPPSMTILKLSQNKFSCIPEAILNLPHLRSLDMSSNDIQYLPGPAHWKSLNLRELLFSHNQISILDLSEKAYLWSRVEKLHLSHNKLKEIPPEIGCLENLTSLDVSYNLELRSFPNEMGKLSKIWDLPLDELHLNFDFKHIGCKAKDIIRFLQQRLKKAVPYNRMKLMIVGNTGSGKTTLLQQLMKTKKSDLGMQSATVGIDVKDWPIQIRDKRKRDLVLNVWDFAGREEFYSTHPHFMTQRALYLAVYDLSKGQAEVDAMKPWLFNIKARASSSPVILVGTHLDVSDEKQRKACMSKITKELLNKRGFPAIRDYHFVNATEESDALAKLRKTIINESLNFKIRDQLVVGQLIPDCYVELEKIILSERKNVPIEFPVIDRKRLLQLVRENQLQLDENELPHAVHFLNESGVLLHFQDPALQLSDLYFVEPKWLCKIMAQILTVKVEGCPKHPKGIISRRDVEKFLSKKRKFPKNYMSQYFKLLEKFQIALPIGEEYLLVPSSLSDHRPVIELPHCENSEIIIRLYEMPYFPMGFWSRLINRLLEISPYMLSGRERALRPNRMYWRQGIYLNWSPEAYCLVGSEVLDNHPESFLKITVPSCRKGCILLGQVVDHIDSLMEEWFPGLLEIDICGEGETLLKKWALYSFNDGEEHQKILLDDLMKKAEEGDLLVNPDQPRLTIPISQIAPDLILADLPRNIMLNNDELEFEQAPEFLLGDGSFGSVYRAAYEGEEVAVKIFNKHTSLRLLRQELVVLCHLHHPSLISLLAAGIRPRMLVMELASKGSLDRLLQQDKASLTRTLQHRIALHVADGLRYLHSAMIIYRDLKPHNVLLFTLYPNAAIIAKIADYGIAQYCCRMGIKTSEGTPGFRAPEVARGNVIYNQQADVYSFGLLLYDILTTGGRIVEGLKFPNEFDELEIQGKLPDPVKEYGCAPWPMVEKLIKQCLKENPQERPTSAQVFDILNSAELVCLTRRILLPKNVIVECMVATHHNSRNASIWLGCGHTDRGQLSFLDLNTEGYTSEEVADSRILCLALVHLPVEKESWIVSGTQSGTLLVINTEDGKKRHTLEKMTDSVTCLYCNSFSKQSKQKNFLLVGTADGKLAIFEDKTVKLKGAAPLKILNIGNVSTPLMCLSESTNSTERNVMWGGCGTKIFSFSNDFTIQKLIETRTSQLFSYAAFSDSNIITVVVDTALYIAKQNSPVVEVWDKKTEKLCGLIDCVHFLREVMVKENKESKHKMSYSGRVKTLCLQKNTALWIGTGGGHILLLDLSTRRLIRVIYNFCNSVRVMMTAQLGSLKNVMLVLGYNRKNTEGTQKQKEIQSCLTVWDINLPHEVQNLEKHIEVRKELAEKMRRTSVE

YES1 (human) = YES1 (human) (UniProt P07947)
EPHB2 (human) = EPHB2 (human) (UniProt P29323)
EPHA4 (human) = EPHA4 (human) (UniProt P54764)
BMX (human) = BMX (human) (UniProt P51813)
Chain of BMX (human) (P51813 whole entry, looked up): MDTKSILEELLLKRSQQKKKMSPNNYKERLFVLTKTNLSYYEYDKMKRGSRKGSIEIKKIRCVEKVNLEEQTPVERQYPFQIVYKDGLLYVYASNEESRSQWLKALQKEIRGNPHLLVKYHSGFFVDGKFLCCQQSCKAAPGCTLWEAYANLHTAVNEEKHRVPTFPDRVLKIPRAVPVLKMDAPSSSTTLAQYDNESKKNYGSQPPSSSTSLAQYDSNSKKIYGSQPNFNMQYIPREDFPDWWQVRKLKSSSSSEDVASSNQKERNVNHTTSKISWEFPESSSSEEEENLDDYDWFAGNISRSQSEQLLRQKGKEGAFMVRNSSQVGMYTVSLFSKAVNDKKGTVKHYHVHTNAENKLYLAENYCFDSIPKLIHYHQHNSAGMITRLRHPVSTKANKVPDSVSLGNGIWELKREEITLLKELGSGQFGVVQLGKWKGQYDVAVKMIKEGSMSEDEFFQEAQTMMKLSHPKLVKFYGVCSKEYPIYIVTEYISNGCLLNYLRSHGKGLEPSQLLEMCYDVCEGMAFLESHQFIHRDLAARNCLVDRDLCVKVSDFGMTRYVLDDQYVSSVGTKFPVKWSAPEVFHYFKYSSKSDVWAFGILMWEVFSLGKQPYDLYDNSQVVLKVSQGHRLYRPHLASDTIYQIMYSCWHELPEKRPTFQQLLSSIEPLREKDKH

PHKG2 (human) = PHKG2 (human) (UniProt P15735)
MARK3 (human) = MARK3 (human) (UniProt P27448)
GSG2 (human) = GSG2 (human) (UniProt Q8TF76)
NLK (human) = NLK (human) (UniProt Q9UBE8)
RPS6KA5 KD2 (human) = RPS6KA5 KD2 (human) (UniProt O75582)
DAPK3 (human) = DAPK3 (human) (UniProt O43293)
BRSK1 (human) = BRSK1 (human) (UniProt Q8TDC3)
LYN (human) = LYN (human) (UniProt P07948)
Chain of LYN (human) (P07948 whole entry, looked up): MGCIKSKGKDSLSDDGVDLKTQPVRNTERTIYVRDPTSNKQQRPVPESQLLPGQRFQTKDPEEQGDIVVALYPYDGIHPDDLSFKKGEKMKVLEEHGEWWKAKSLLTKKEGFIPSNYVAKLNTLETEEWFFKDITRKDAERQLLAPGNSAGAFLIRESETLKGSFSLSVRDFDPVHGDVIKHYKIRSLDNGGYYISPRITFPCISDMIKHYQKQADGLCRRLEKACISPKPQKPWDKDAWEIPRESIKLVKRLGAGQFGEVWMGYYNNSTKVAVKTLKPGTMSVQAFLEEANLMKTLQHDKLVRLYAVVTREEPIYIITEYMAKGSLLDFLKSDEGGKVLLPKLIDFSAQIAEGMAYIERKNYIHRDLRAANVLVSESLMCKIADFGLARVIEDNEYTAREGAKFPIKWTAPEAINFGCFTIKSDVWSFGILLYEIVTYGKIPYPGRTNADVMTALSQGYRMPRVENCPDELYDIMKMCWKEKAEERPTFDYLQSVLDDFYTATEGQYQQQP

MAP2K1 (human) = MAP2K1 (human) (UniProt Q02750)
CDK5 CDK5R1 p25 (human) = CDK5 CDK5R1 p25 (human) (UniProt Q00535+Q15078)
PRKD3 (human) = PRKD3 (human) (UniProt O94806)
RPS6KA3 KD1 KD2 (human) = RPS6KA3 KD1 KD2 (human) (UniProt P51812)
AKT3 (human) = AKT3 (human) (UniProt Q9Y243)
CAMKK1 (human) = CAMKK1 (human) (UniProt Q8N5S9)
MYLK2 (human) = MYLK2 (human) (UniProt Q9H1R3)
INSR (human) = INSR (human) (UniProt P06213)
DMPK (human) = DMPK (human) (UniProt Q09013)
ULK2 (human) = ULK2 (human) (UniProt Q8IYT8)
MAP3K9 (human) = MAP3K9 (human) (UniProt P80192)
STK24 (human) = STK24 (human) (UniProt Q9Y6E0)
EPHB1 (human) = EPHB1 (human) (UniProt P54762)
Chain of EPHB1 (human) (P54762 whole entry, looked up): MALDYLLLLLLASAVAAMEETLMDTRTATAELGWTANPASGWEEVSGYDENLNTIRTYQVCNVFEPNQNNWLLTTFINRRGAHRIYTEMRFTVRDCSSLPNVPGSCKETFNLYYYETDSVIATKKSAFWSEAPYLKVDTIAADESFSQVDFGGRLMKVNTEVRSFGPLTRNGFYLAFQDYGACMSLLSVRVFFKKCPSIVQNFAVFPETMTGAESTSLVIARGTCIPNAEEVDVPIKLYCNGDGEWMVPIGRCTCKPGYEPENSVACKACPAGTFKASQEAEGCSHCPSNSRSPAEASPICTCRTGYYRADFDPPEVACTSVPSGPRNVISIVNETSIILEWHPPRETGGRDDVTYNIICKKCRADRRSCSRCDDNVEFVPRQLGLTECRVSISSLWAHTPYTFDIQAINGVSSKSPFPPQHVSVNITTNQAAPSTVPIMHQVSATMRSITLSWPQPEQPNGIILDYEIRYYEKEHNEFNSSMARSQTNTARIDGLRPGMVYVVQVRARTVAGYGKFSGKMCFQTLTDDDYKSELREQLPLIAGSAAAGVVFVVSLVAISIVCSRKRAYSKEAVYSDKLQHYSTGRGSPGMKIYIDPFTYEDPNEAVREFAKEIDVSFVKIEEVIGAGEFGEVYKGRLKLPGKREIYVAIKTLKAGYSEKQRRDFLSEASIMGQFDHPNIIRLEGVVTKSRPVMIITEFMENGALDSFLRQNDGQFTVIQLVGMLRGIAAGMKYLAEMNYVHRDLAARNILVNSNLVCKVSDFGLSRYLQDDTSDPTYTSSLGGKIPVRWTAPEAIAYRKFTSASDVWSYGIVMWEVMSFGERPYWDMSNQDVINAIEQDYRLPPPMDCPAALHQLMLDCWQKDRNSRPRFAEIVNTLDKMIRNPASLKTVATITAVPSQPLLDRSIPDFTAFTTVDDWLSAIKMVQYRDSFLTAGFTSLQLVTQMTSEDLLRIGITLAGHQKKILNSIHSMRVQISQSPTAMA

FLT3 (human) = FLT3 (human) (UniProt P36888)
PRKD1 (human) = PRKD1 (human) (UniProt Q15139)
ACVR1B (human) = ACVR1B (human) (UniProt P36896)
LIMK1 (human) = LIMK1 (human) (UniProt P53667)
LCK (human) = LCK (human) (UniProt P06239)
MAPKAPK3 (human) = MAPKAPK3 (human) (UniProt Q16644)
Chain of MAPKAPK3 (human) (Q16644 whole entry, looked up): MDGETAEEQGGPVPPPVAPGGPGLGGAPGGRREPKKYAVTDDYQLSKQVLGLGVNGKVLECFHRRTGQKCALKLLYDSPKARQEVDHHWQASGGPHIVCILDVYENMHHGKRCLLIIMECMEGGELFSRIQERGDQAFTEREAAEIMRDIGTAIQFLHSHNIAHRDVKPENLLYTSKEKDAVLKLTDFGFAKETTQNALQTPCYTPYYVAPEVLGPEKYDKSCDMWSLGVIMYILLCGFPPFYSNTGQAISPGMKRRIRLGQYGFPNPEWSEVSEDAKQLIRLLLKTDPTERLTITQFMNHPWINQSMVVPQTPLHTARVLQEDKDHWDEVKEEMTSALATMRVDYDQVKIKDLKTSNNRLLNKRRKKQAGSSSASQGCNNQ

Work on `Cc1ccc(NC(=O)c2ccc(CN3CCN(C)CC3)cc2)cc1Nc1nc(-c2cccnc2)cs1` yielded a residual activity (MAPK13 (human)) of 101%, a residual activity (PBK (human)) of 99.6% and a residual activity (AXL (human)) of 86.5%. For the same compound, the residual activity (DYRK4 (human)) was 100%, the residual activity (MAP2K2 (human)) was 114% and the residual activity (PAK7 (human)) was 92%. The residual activity (CSF1R (human)) was 8.38%, the residual activity (PIM3 (human)) was 73.7% and the residual activity (ADRBK2 (human)) was 100%. The residual activity (CDK1 CCNB1 (human)) was 97.6%, the residual activity (LRRK2 (human)) was 107% and the residual activity (YES1 (human)) was 50.7%. For the same compound, the residual activity (EPHB2 (human)) was 95.3%, the residual activity (EPHA4 (human)) was 105% and the residual activity (BMX (human)) was 104%. It also gave a residual activity (PHKG2 (human)) of 69.1%, a residual activity (MARK3 (human)) of 100% and a residual activity (GSG2 (human)) of 100%. The residual activity (NLK (human)) was 106%, the residual activity (RPS6KA5 KD2 (human)) was 103% and the residual activity (DAPK3 (human)) was 100%. For the same compound, the residual activity (BRSK1 (human)) was 102%, the residual activity (LYN (human)) was 16.2% and 18.7% and the residual activity (MAP2K1 (human)) was 111%. It also gave a residual activity (CDK5 CDK5R1 p25 (human)) of 104%, a residual activity (PRKD3 (human)) of 92.7% and a residual activity (RPS6KA3 KD1 KD2 (human)) of 93.6%. For the same compound, the residual activity (AKT3 (human)) was 102%, the residual activity (CAMKK1 (human)) was 97.6% and the residual activity (MYLK2 (human)) was 98.7%. The residual activity (INSR (human)) was 99%, the residual activity (DMPK (human)) was 104% and the residual activity (ULK2 (human)) was 103%. The residual activity (MAP3K9 (human)) was 104%, the residual activity (STK24 (human)) was 104% and the residual activity (EPHB1 (human)) was 94.9%. It also gave a residual activity (FLT3 (human)) of 84.4%, a residual activity (PRKD1 (human)) of 98.2% and a residual activity (ACVR1B (human)) of 99.8%. It also gave a residual activity (LIMK1 (human)) of 98.1%, a residual activity (LCK (human)) of 7.63% and a residual activity (MAPKAPK3 (human)) of 97.9%.
